# Test: Sensory evaluation of dressing containing the agent
# Conditions: ten panels
# Experimental: Sensory evaluation of each drink was carried out by ten panels. […] The piercing aroma characteristic to aldehydes is a characteristic aroma common to every aldehyde and refers to an irritant off-smell giving an image of deteriorated oils and fats, soap, metals, Houttuynia cordata, etc. The judgment of smell was performed by comparing the effects at different concentrations of the acid taste and/or acid smell-reducing agent, and a concentration giving the highest acid taste/acid smell quality was selected.
# A separation-type dressing base material (100 g) was prepared by mixing 20 g of edible vinegar, 35 g of vegetable oils and fats, and 45 g of an aqueous solution containing spices and extracts with stirring. To the resulting mixture was added (Z,Z)-4,7-tridecadienal as the acid taste and/or acid smell-reducing agent of the present invention in concentrations shown in the following Table 10 to give dressings containing the agent, followed by sensory evaluation as in Example 1.
smiles,measurement,setting,value
"CCCCC/C=C\C/C=C\CCC=O [(Z,Z)-4,7-tridecadienal]","A: number of panels, acid taste/acid smell extreme and cause irritation",0.005 ppt,10
same,"B: number of panels, acid taste/acid smell slightly strong and slightly cause irritation",0.005 ppt,0
same,"C: number of panels, acid taste/acid smell slightly unpleasant",0.005 ppt,0
same,Flavor judgment: number of panels who judged acid taste/acid smell quality the highest,0.005 ppt,0
same,"N: number of panels, irritation of acid reduced to give a mild acid taste",0.005 ppt,0
same,"X: number of panels, acid taste reduced but piercing odor characteristic to aldehydes unpleasant",0.005 ppt,0
same,"A: number of panels, acid taste/acid smell extreme and cause irritation",0.02 ppt,9
same,"B: number of panels, acid taste/acid smell slightly strong and slightly cause irritation",0.02 ppt,1
same,"C: number of panels, acid taste/acid smell slightly unpleasant",0.02 ppt,0
same,Flavor judgment: number of panels who judged acid taste/acid smell quality the highest,0.02 ppt,0
same,"N: number of panels, irritation of acid reduced to give a mild acid taste",0.02 ppt,0
same,"X: number of panels, acid taste reduced but piercing odor characteristic to aldehydes unpleasant",0.02 ppt,0
same,"A: number of panels, acid taste/acid smell extreme and cause irritation",0.1 ppt,6
same,"B: number of panels, acid taste/acid smell slightly strong and slightly cause irritation",0.1 ppt,4
same,"C: number of panels, acid taste/acid smell slightly unpleasant",0.1 ppt,0
same,Flavor judgment: number of panels who judged acid taste/acid smell quality the highest,0.1 ppt,0
same,"N: number of panels, irritation of acid reduced to give a mild acid taste",0.1 ppt,0
same,"X: number of panels, acid taste reduced but piercing odor characteristic to aldehydes unpleasant",0.1 ppt,0
same,"A: number of panels, acid taste/acid smell extreme and cause irritation",0.2 ppt,4
same,"B: number of panels, acid taste/acid smell slightly strong and slightly cause irritation",0.2 ppt,4
same,"C: number of panels, acid taste/acid smell slightly unpleasant",0.2 ppt,2
same,Flavor judgment: number of panels who judged acid taste/acid smell quality the highest,0.2 ppt,0
same,"N: number of panels, irritation of acid reduced to give a mild acid taste",0.2 ppt,0
same,"X: number of panels, acid taste reduced but piercing odor characteristic to aldehydes unpleasant",0.2 ppt,0
same,"A: number of panels, acid taste/acid smell extreme and cause irritation",0.5 ppt,1
same,"B: number of panels, acid taste/acid smell slightly strong and slightly cause irritation",0.5 ppt,2
same,"C: number of panels, acid taste/acid smell slightly unpleasant",0.5 ppt,2
same,Flavor judgment: number of panels who judged acid taste/acid smell quality the highest,0.5 ppt,1
same,"N: number of panels, irritation of acid reduced to give a mild acid taste",0.5 ppt,5
same,"X: number of panels, acid taste reduced but piercing odor characteristic to aldehydes unpleasant",0.5 ppt,0
same,"A: number of panels, acid taste/acid smell extreme and cause irritation",1 ppb,0
same,"B: number of panels, acid taste/acid smell slightly strong and slightly cause irritation",1 ppb,0
same,"C: number of panels, acid taste/acid smell slightly unpleasant",1 ppb,3
same,Flavor judgment: number of panels who judged acid taste/acid smell quality the highest,1 ppb,0
same,"N: number of panels, irritation of acid reduced to give a mild acid taste",1 ppb,3
same,"X: number of panels, acid taste reduced but piercing odor characteristic to aldehydes unpleasant",1 ppb,4
same,"A: number of panels, acid taste/acid smell extreme and cause irritation",1 ppt,0
same,"B: number of panels, acid taste/acid smell slightly strong and slightly cause irritation",1 ppt,1
same,"C: number of panels, acid taste/acid smell slightly unpleasant",1 ppt,3
same,Flavor judgment: number of panels who judged acid taste/acid smell quality the highest,1 ppt,1
same,"N: number of panels, irritation of acid reduced to give a mild acid taste",1 ppt,6
same,"X: number of panels, acid taste reduced but piercing odor characteristic to aldehydes unpleasant",1 ppt,0
same,"A: number of panels, acid taste/acid smell extreme and cause irritation",5 ppt,0
same,"B: number of panels, acid taste/acid smell slightly strong and slightly cause irritation",5 ppt,0
same,"C: number of panels, acid taste/acid smell slightly unpleasant",5 ppt,3
same,Flavor judgment: number of panels who judged acid taste/acid smell quality the highest,5 ppt,4
same,"N: number of panels, irritation of acid reduced to give a mild acid taste",5 ppt,7
same,"X: number of panels, acid taste reduced but piercing odor characteristic to aldehydes unpleasant",5 ppt,0
same,"A: number of panels, acid taste/acid smell extreme and cause irritation",10 ppb,0
same,"B: number of panels, acid taste/acid smell slightly strong and slightly cause irritation",10 ppb,0
same,"C: number of panels, acid taste/acid smell slightly unpleasant",10 ppb,1
same,Flavor judgment: number of panels who judged acid taste/acid smell quality the highest,10 ppb,0
same,"N: number of panels, irritation of acid reduced to give a mild acid taste",10 ppb,2
same,"X: number of panels, acid taste reduced but piercing odor characteristic to aldehydes unpleasant",10 ppb,7
same,"A: number of panels, acid taste/acid smell extreme and cause irritation",20 ppt,0
same,"B: number of panels, acid taste/acid smell slightly strong and slightly cause irritation",20 ppt,0
same,"C: number of panels, acid taste/acid smell slightly unpleasant",20 ppt,3
same,Flavor judgment: number of panels who judged acid taste/acid smell quality the highest,20 ppt,4
same,"N: number of panels, irritation of acid reduced to give a mild acid taste",20 ppt,7
same,"X: number of panels, acid taste reduced but piercing odor characteristic to aldehydes unpleasant",20 ppt,0
same,"A: number of panels, acid taste/acid smell extreme and cause irritation",50 ppb,0
same,"B: number of panels, acid taste/acid smell slightly strong and slightly cause irritation",50 ppb,0
same,"C: number of panels, acid taste/acid smell slightly unpleasant",50 ppb,0
same,Flavor judgment: number of panels who judged acid taste/acid smell quality the highest,50 ppb,0
same,"N: number of panels, irritation of acid reduced to give a mild acid taste",50 ppb,2
same,"X: number of panels, acid taste reduced but piercing odor characteristic to aldehydes unpleasant",50 ppb,8
same,"A: number of panels, acid taste/acid smell extreme and cause irritation",100 ppt,0
same,"B: number of panels, acid taste/acid smell slightly strong and slightly cause irritation",100 ppt,1
same,"C: number of panels, acid taste/acid smell slightly unpleasant",100 ppt,3
same,Flavor judgment: number of panels who judged acid taste/acid smell quality the highest,100 ppt,0
same,"N: number of panels, irritation of acid reduced to give a mild acid taste",100 ppt,4
same,"X: number of panels, acid taste reduced but piercing odor characteristic to aldehydes unpleasant",100 ppt,2
same,"A: number of panels, acid taste/acid smell extreme and cause irritation",500 ppt,0
same,"B: number of panels, acid taste/acid smell slightly strong and slightly cause irritation",500 ppt,0
same,"C: number of panels, acid taste/acid smell slightly unpleasant",500 ppt,4
same,Flavor judgment: number of panels who judged acid taste/acid smell quality the highest,500 ppt,0
same,"N: number of panels, irritation of acid reduced to give a mild acid taste",500 ppt,4
same,"X: number of panels, acid taste reduced but piercing odor characteristic to aldehydes unpleasant",500 ppt,2
